Laboratory results taken from the NIST ThermoML archive (doi:10.1021/je100776x).
± gives the expanded uncertainty stated by the source.

Tests used:
[1] = refractive index (Na D-line) (dimensionless); details: 298.15 K; 101.33 kPa; Liquid; Standard Abbe refractometry
[2] = Liquid; for mass density: 298.15 K, 101.33 kPa, Vibrating tube method; for Normal boiling temperature: Ebulliometric method (Recirculating still)

CC(=O)CC(C)C [4-methylpentan-2-one]
Details	mass density [kg/m3]	refractive index
[1]	–	1.3942 ± 0.0005
[2]	796.03 ± 0.14	–

[2]
Details	vapor or sublimation pressure [kPa]
343.76 K	22.45 ± 0.2
346.51 K	24.97 ± 0.2
349.09 K	27.43 ± 0.21
351.46 K	29.98 ± 0.21
353.65 K	32.46 ± 0.21
355.76 K	35.07 ± 0.21
357.68 K	37.44 ± 0.21
359.54 K	39.99 ± 0.21
361.33 K	42.54 ± 0.21
362.97 K	44.96 ± 0.21
364.61 K	47.52 ± 0.21
366.15 K	50.02 ± 0.21
367.55 K	52.44 ± 0.21
369.05 K	55.08 ± 0.22
370.35 K	57.48 ± 0.22
371.66 K	59.96 ± 0.22
372.96 K	62.51 ± 0.22
374.22 K	65.08 ± 0.22
375.35 K	67.44 ± 0.22
376.56 K	70.07 ± 0.22
377.63 K	72.41 ± 0.22
378.73 K	74.98 ± 0.23
379.78 K	77.41 ± 0.23
380.83 K	79.93 ± 0.23
381.84 K	82.44 ± 0.23
382.84 K	84.96 ± 0.23
383.8 K	87.44 ± 0.23
384.71 K	89.85 ± 0.23
385.67 K	92.47 ± 0.23
386.6 K	95.07 ± 0.24
387.45 K	97.46 ± 0.24
387.82 K	98.52 ± 0.24
388.33 K	99.98 ± 0.24
388.78 K	101.33 ± 0.24

C1CCCCC1 [cyclohexane]
Details	Normal boiling temperature [°C]	mass density [kg/m3]	refractive index
[1]	–	–	1.4238 ± 0.0005
[2]	80.58 ± 0.2	773.82 ± 0.13	–

C1=CCCCC1 [cyclohexene]
Details	Normal boiling temperature [°C]	mass density [kg/m3]	refractive index
[1]	–	–	1.4444 ± 0.0005
[2]	82.82 ± 0.21	805.69 ± 0.14	–
